Usually viability stands for a read-out of living cells in per cent, often relative to untreated cells. In general, IC50 refers to the midpoint of a concentration-inhibition curve. The low end stands for inhibition by little substance, the high end for a need for much substance.

“Also recorded” adds a separate entry of the source. Read-outs that look alike come from different tables or passages of the source. Bounds are passed on as bounds.

Consider 20 molecules from publication PMC10458971, “Chemical Constituents with Anti-Lipid Droplet Accumulation and Anti-Inflammatory Activity from Elaeagnus glabra” (Plants, 2023).

Type in all cases: cell-based
The subject of data set [1] is AML12 cell line. Nature of the data set: LD assay: anti-lipid droplet accumulation in oleic-acid-treated AML12 cells (BODIPY 493/503). The protocol:
(§1) In this study, twelve compounds present in sufficient amounts (9, 11, 15, 16, 18–20, 22, 25, 30, 31, and 37) were evaluated for anti-LD accumulation activity (Table 3). To assess the anti-LD formation activity, the average LD counts/cell of bovine serum albumin (BSA)-conjugated oleic acid (OA) + drug vehicle (DMSO)-treated wells (hereinafter referred to as OA) were used as the standard for 100% fat loading, and triacsin C (TC) was used as the reference control. […] In Figure 5A, the blue pseudocolor indicates the nuclei area, and the green ones depict the LD area.
Figure 5 Effect of methyl pheophorbide a (37) on LD accumulation. (A) Representative images of the anti-LD formation activity of methyl pheophorbide a (37). (B) Quantification results of the LD assay and cell viability. AML12 cells were treated with BSA or OA (125 µM) with 20 µM methyl pheophorbide a (37) for 24 h. AML12 cells were used as a cell model for lipid accumulation—they were treated with 125 μM oleic acid (OA) for 24 h. Nuclei and LD were stained with Hoechst 33342 (blue) and BODIPY® 493/503 (green), respectively. The asterisk indicates a significant difference from the solvent control cells (*** p < 0.001, one-way ANOVA). TEXT PRINTED IN THE PICTURE: (B) BSA: Normalized LD Count (%): 17.3% *** | (B) OA: Normalized LD Count (%): 100.0% | (B) OA + 37: Normalized LD Count (%): 0.3% ***
(§2) Cells were cultured as described previously. The medium for AML12 (BCRC 60326; Bioresources Collection and Research Center (BCRC), Hsinchu, Taiwan) was a 1:1 mixture of DMEM and Ham’s F12 medium with 10% FBS and 1× ITS-A supplement (Thermo Fisher Scientific).
The LD accumulation of the test compounds was evaluated according to the studies published by co-author Professor Chia-Hung Yen. The LD accumulation was detected by BODIPY® 493/503 dye (Thermo Fisher Scientific). LD accumulation was achieved by treating cells with OA conjugated to BSA. All data were analyzed with GraphPad Prism 6.01 software (La Jolla, CA, USA). One-way analysis of variance (ANOVA) followed by Tukey’s comparison test was used to compare differences between multiple groups. A p-value < 0.05 was considered statistically significant.

Data set [2] in a line: Cell viability (nucleus counts, DAPI image) in AML12 cells. Particulars: mouse. The protocol: as §1, §2
In data set [3] the test system is fMLP/CB-induced human neutrophils. Kind of data set: Superoxide anion generation in fMLP/CB-induced human neutrophils. As to conditions: for IC50: fMLP/CB-induced human neutrophils, mean ± S.E.M. (n = 3–4); for Inhibitory activity toward superoxide anion generation or elastase release (preliminary screening, Inh%): 10 μM, Figure 6. An excerpt: (§3) NAFLD is accompanied by inflammation. In the NASH stage, the liver is inflamed. As the NAFLD progresses, persistent inflammation causes scar tissue around the liver; this is called the fibrosis stage. After years of inflammation, liver damage occurs and becomes cirrhosis. To explore the potential of compounds for managing inflammation, eight compounds were preliminarily evaluated for their effects on neutrophil pro-inflammatory responses by suppressing fMLP/CB-induced superoxide anion generation and elastase release (Figure 6 and Table 4). […] These two compounds were further evaluated for their anti-inflammatory activity IC50 values (Table 4).
(§4) Neutrophils were collected from healthy adults aged 20–35 and isolated using Ficoll-Paque density separation. The study was approved by Chang Gung Memorial Hospital’s Institutional Review Board (IRB No. 201902217A3) following the Declaration of Helsinki guidelines. The methods for testing the effects of isolates on superoxide anion generation and elastase release in neutrophils were based on studies published by Professor Tsong-Long Hwang. Ferricytochrome c (0.6 mg/mL) was used to measure superoxide anion. Elastase substrate (methoxysuccinyl-Ala-Ala-Pro-Val-p-nitroanilide, 100 µM; Merck) was employed to detect the elastase release. The elastase level was detected using a spectrophotometer at OD 405 nm. A PI3K inhibitor, namely, LY29002, was used as a positive control in the neutrophil assays. All assays were repeated at least three times. Results are presented as the mean ± standard error of the mean (S.E.M.). Student′s t-test was used to compare the test isolates with a DMSO (0.1%) control. A probability of less than 0.05 was considered significant.

For data set [4] the test system is unchanged. Kind of data set: Elastase release in fMLP/CB-induced human neutrophils. As to conditions: mean ± S.E.M. (n = 3–4).
Excerpt: as §3, §4

The subject of data set [5] is AML12 cell line. Kind of data set: Cell viability (nucleus counts, DAPI image) in AML12 cells. Particulars: AML12; for Cell Viability (%, 24h, DAPI Image): compound 100 μg/mL, nucleus counts of DMSO = 100%. As to the method: as §1, §2
[6] abbreviates: Mus musculus, compound 100 μg/mL, AML12, average LD counts/cell of oleic-acid-treated group = 100% fat-loading, read-out: Relative Lipid Droplet Count (%).
Where [7] appears, read: AML12 cells, compound 100 μg/mL, 24 h, AML12, nucleus counts of DMSO = 100%, read-out: Cell Viability (%, 24h, DAPI Image).
Where [8] appears, read: compound 100 μg/mL, AML12, average LD counts/cell of oleic-acid-treated group = 100% fat-loading.
The mark [9] stands for this setting: Mus musculus, AML12, read-out: Relative Lipid Droplet Count (%).
The mark [10] stands for this setting: compound 100 μg/mL, 24 h, AML12, nucleus counts of DMSO = 100%, read-out: Cell Viability (%, 24h, DAPI Image).

For the molecule `Oc1cc(O)c2c(c1)O[C@@H](c1cc(O)c(O)c(O)c1)[C@H](O)C2` [(−)-gallocatechin (20), (−)-gallocatechin], in data set [1] (setting [6]), the activity at 100 µg/mL was found to be 117 ± 7.8%. Also, in data set [2], the viability at 24 h, 100 μg/mL is 154 ± 6.2%.

`C=C(C)[C@@H]1CC[C@]2(C)CC[C@]3(C)[C@H](CC[C@@H]4[C@@]5(C)CC[C@H](O)C(C)(C)[C@@H]5CC[C@]43C)[C@@H]12` [lupeol (9), lupeol]: the activity at 100 µg/mL in data set [1] (setting [6]) turned out to be 95.2 ± 1.8%. Also, the viability at 24 h, 100 μg/mL in data set [2] (setting [7]) was 114 ± 3.6%.

For `C=C(C)C1CCC2(C(=O)O)CCC3(C)C(CCC4C5(C)CCC(OC(=O)C=Cc6ccc(O)c(O)c6)C(C)(C)C5CCC43C)C12` (single isomer, unassigned; (+)) [(+)-3β-O-trans-caffeoyl betulinic acid], the IC50 in data set [3] and in data set [4] was more than 10 µM each time.

Turning to `Oc1cc(O)c2c(c1)O[C@H](c1cc(O)c(O)c(O)c1)[C@H](O)C2` [(−)-epigallocatechin (19), (−)-epigallocatechin], the “Relative Lipid Droplet Count (%)” value in data set [1] (setting [8]) came to 93.5 ± 6.6%.

With `O=C(O)c1ccc(CCO)cc1` [4-(2-hydroxyethyl)benzoic acid (26), 4-(2-hydroxyethyl)benzoic acid], the IC50 in data set [3] (Homo sapiens, Neutrophil) was more than 10 µM; in data set [4] (Homo sapiens, Neutrophil), more than 10 µM.

Take `C[C@H]1[C@H](C)CC[C@]2(C(=O)O)CC[C@]3(C)C(=CC[C@@H]4[C@@]5(C)CC[C@H](O)C(C)(C)[C@@H]5CC[C@]43C)[C@H]12` [ursolic acid (11), ursolic acid]: in data set [1] (setting [6]), the activity at 100 µg/mL turned out to be 99.2 ± 4%. For the same molecule, the viability at 24 h, 100 μg/mL in data set [2] (setting [7]) worked out at 146 ± 4.5%.

With `C=Cc1c(C)c2cc3nc(c4c5[nH]c(cc6nc(cc1[nH]2)C(C)=C6CC)c(C)c5C(=O)[C@@H]4C(=O)OC)[C@@H](CCC(=O)OC)[C@@H]3C` [methyl pheophorbide a (37), methyl pheophorbide a], the LD content reduction entry in data set [1] (20 μM, AML12) is reported as “more than 90%”. For the same molecule, the “Normalized LD Count (%) / normalized LD content” value in data set [1] (20 μM, AML12, OA 125 μM, 24 h, OA = 100%) was 0.3%. Moreover, the activity at 100 µg/mL in data set [1] (setting [6]) came out at 0.3 ± 0.1%. Further, the viability at 24 h, 100 μg/mL in data set [2] (setting [7]) came to 99.5 ± 5.4%. For the same molecule, the Cytotoxicity result in data set [5] (20 μM) is recorded as “without significant cytotoxic effects; also recorded: without cytotoxicity”. Further, in data set [5], the “Cell Viability (%, 24h, DAPI Image)” value is recorded as “did not affect the cell viability”. Further, the “Inhibitory activity toward superoxide anion generation or elastase release (preliminary screening, Inh%)” value in data set [3] is “significant inhibitory activity”. Further, the half-maximal inhibitory concentration (IC50) in data set [4] (Homo sapiens, Neutrophil) was less than 3 µM; in data set [4], 2.35 ± 0.12 µM.

With `O=c1cc(N2CCOCC2)oc2c(-c3ccccc3)cccc12` [LY294002, reference compound], the IC50 in data set [3] (Homo sapiens, Neutrophil) turned out to be 1.29 ± 0.52 µM; in data set [4] (Homo sapiens, Neutrophil), 2.61 ± 0.72 µM.

On to `CC[C@H](CC[C@@H](C)[C@H]1CC[C@H]2[C@@H]3CC=C4C[C@@H](O)CC[C@]4(C)[C@H]3CC[C@]12C)C(C)C` [β-sitosterol (30), β-sitosterol], for which, in data set [1] (setting [9]), the activity at 100 µg/mL was determined as 113 ± 7.6%. The viability at 24 h, 100 μg/mL in data set [2] (setting [10]) turned out to be 128 ± 9.1%.

With `CCC/C=C/C/C=C/C=C/C=N/NN=O` [TC, Triacsin C, reference compound], the activity at 0.008 µM in data set [1] (setting [9]) amounted to 60.6 ± 0.2%. Besides, the viability at 24 h, 0.008 µM in data set [2] (positive control, drug concentration 8 nM, 24 h, AML12, DMSO = 100%) stood at 126 ± 6.1%.

As to `CC1(C)CCC23CCC4(C)C5(C)CCC6C(C)(CO)C(O)C(O)CC6(C)C5C5OC5C4(OC2=O)C3C1` (stereo not drawn) [2α,3β,23-trihydroxy-11α,12α-epoxyolean-28,13β-olide], the IC50 in data set [3] and in data set [4] was more than 10 µM in each case.

Consider `Oc1cc(O)c2c(c1)O[C@@H](c1ccc(O)c(O)c1)[C@H](O)C2` [(−)-catechin (16), (−)-catechin], for which, in data set [1] (setting [6]), the activity at 100 µg/mL was determined as 111 ± 5.1%. In addition, the viability at 24 h, 100 μg/mL in data set [2] (setting [7]) was found to be 154 ± 12.3%.

Take `CC1(C)CC[C@]2(C(=O)O)CC[C@]3(C)C(=CCC4[C@@]5(C)CC[C@H](OC(=O)/C=C/c6ccc(O)c(O)c6)C(C)(C)C5CC[C@]43C)C2C1` (stereo partly shown) [3-O-(E)-caffeoyloleanolic acid (13), 3-O-(E)-caffeoyloleanolic acid]: in data set [3], the “Inhibitory activity toward superoxide anion generation or elastase release (preliminary screening, Inh%)” value is recorded as “significant inhibitory activity” and 3.01 ± 0.58 µM corresponded to half-maximal inhibition (IC50). In data set [4], the IC50 was more than 10 µM.

In the case of `CC1(C)CC[C@]2(C(=O)O)CC[C@]3(C)C(=C[C@@H](O)[C@@H]4[C@@]5(C)C[C@@H](O)[C@H](O)[C@@](C)(CO)[C@@H]5CC[C@]43C)[C@@H]2C1` [cleistocalyxic acid E (7), cleistocalyxic acid E], the IC50 in data set [3] and in data set [4] was more than 10 µM in each case.

For the molecule `COc1cc(C=O)cc(OC)c1O` [syringaldehyde (25), syringaldehyde], in data set [1] (setting [9]), the activity at 100 µg/mL came out at 102 ± 5%. For the same molecule, the viability at 24 h, 100 μg/mL in data set [2] (setting [10]) turned out to be 138 ± 5.7%. The half-maximal inhibitory concentration (IC50) in data set [3] (Neutrophil) and in data set [4] (Neutrophil) was more than 10 µM throughout.

In the case of `Oc1cc(O)c2c(c1)O[C@H](c1ccc(O)c(O)c1)[C@H](O)C2` [(−)-epicatechin (18), (−)-epicatechin], the activity at 100 µg/mL in data set [1] (setting [6]) is 116 ± 6%. For the same molecule, the viability at 24 h, 100 μg/mL in data set [2] (setting [7]) amounted to 146 ± 10.3%.

Regarding `CC1(C)CC[C@@]23CC[C@]4(C)[C@@](OC2=O)([C@@H]3C1)[C@H]1O[C@H]1[C@@H]1[C@@]2(C)CC[C@H](OC(=O)/C=C/c3ccc(O)c(O)c3)C(C)(C)[C@@H]2CC[C@]14C` [elaeagterpene A (2), (3S,4aR,6aR,6bS,8aS,12aR,12bS,12cS,13aS,13bR,13cS)-4,4,6a,6b,11,11,13c-Heptamethyl-15-oxooctadecahydro-1H,9H-12b,8a-(epoxymethano)piceno [13,14-b]oxiren-3-yl(E)-3-(3,4-dihydroxyphenyl)acrylate], the IC50 was more than 10 µM in data set [3] (Homo sapiens, Neutrophil) and more than 10 µM in data set [4] (Homo sapiens, Neutrophil).

In the case of `CC[C@H](CC[C@@H](C)[C@H]1CC[C@H]2[C@@H]3CCC4=CC(=O)CC[C@]4(C)[C@H]3CC[C@]12C)C(C)C` [β-sitosterone (31), β-sitosterone], in data set [1] (setting [8]), the “Relative Lipid Droplet Count (%)” value worked out at 121.5 ± 4.3%. Further, the “Cell Viability (%, 24h, DAPI Image)” value in data set [5] is reported as 135.3 ± 7.3%.

In the case of “plumbocatechin A [plumbocatechin A (22)]”, the “Relative Lipid Droplet Count (%)” value in data set [1] (setting [8]) is on record as 118.2 ± 3.1%. Besides, the “Cell Viability (%, 24h, DAPI Image)” value in data set [5] was determined as 147.8 ± 9.6%.

For the molecule “plumbocatechins B [plumbocatechins B (15)]”, in data set [1] (setting [8]), the “Relative Lipid Droplet Count (%)” value is on record as 105.9 ± 7.8%. In addition, the “Cell Viability (%, 24h, DAPI Image)” value in data set [5] is given as 132.5 ± 11.8%.
